According to US4252804A, “Therapeutically useful 3,4,5-trimethoxybenzene derivatives” (Metabio-Joullie, priority 1977, dated 1981):

How the values were obtained:
Format in all cases: in vivo
[1] = Acute toxicity for oral administration in mice; conditions: mouse, in vivo, suspension in 10% gum arabic
Procedure: 1--ACUTE TOXICITY FOR ORAL ADMINISTRATION IN MICE
The compounds are administered orally in increasing doses in suspension in a 10% gum arabic solution to groups of 5 .female. mice of mean weight 25 g. The 50% lethal doses (LD 50) are calculated by the method of KARBER and BEHRENS (Arch. Exp. Path. Pharmakol. 1935, 177, 379-388).
The LD 50's found are summarised in Table IV below and indicate that the tested compounds have low toxicity.

[2] = test system: spontaneous motor activity; experiment: Action on spontaneous motor activity in the mouse (BOISSIER); conditions: po, 0.5 h, 30 minutes after administration, vs control, read-out: Percentage variation in motor activity; for change in vivo at 170 mg/kg: 170 mg/kg p.o.; for change in vivo at 250 mg/kg: 250 mg/kg p.o.; for change in vivo at 500 mg/kg: 500 mg/kg p.o.
Procedure: 2.1--Action on spontaneous motor activity in the mouse
30 minutes after administration per os of the test compounds, the mice (groups of 12 animals) are installed in individual cages in a BOISSIER activity measuring cupboard and move about before two photoelectric cells placed according to the rectangular coordinates. Meters register the movement during 20 minutes.

[3] = test system: pentobarbital hypnosis time; experiment: Action on the pentobarbital hypnosis time in the mouse; conditions: po, 0.5 h, 30 minutes before pentobarbital 50 mg/kg i.v., vs control, read-out: Percentage variation in pentobarbital hypnosis time; for change in vivo at 170 mg/kg: 170 mg/kg p.o.; for change in vivo at 250 mg/kg: 250 mg/kg p.o.; for change in vivo at 500 mg/kg: 500 mg/kg p.o.
Description: 2.2--Action on the pentobarbital hypnosis time in the mouse
The hypnosis time of each mouse is counted in minutes from the moment when the animal may be placed without resistance on its back until that when it spontaneously gets back on its feet.

[4] = test system: convulsant effects of strychnine; experiment: Action against the convulsant effects of strychnine in the mouse; conditions: 30 minutes before strychnine 1.5 mg/kg s.c.
Procedure: (§1) 2.3--Test on the action against the convulsant effects of electric shock and of strychnine in the mouse
(§2) 30 minutes after administration of the compounds to groups of 10 animals, there is investigated the protection induced against:
convulsive crisis and death provoked by injection of strychnine at a limiting lethal dose of 1.5 mg/kg s.c.
(§3) The results are expressed as a percentage of protection based on a control group which have only received the administration vehicle for the compounds.

[5] = test system: convulsant effects of electric shock; experiment: Action against the convulsant effects of electric shock in the mouse; conditions: po, 0.5 h, 30 minutes before shock, 13 to 16 mA for 0.1 sec, read-out: Percentage protection against the convulsant effects of the electric shock; for responders at 500 mg/kg: 500 mg/kg p.o.
Procedure: as §1, §2
tonic crisis (extension of rear feet) provoked by supramaximal transcranial electric stimulation (13 to 16 mA for 0.1 sec).
as §3

| Compound | LD50 ([1]; po) | also measured |
| --- | --- | --- |
| COc1cc(NC(=O)N2CCN(C)CC2)cc(OC)c1OC [compound 759] | 4000 mg/kg | change in vivo at 400 mg/kg ([2]; 400 mg/kg p.o.): -45%; change in vivo at 400 mg/kg ([3]; 400 mg/kg p.o.): 22%; Percentage protection against the convulsant effects of strychnine ([4]; 400 mg/kg p.o.): 55% |
| COc1cc(NCC(=O)N2CCOc3ccc(Cl)cc32)cc(OC)c1OC [compound 762] | > 5000 mg/kg |  |
| COc1cc(OC(=O)N2CCN(C)CC2)cc(OC)c1OC [compound 767] |  | LD50 [1]: 1020 mg/kg |
| COc1cc(NC(=O)N2CCOc3ccc(Cl)cc32)cc(OC)c1OC [compound 770] | > 5000 mg/kg |  |
| COc1cc(OC(=O)N2CCOc3ccccc32)cc(OC)c1OC [compound 773] |  | LD50 [1]: > 5000 mg/kg |
| COc1cc(NC(=O)N2CCOc3ccccc32)cc(OC)c1OC [compound 774] | > 5000 mg/kg |  |
| COc1cc(NC(=O)N(C)C)cc(OC)c1OC [compound 775] | 1700 mg/kg | change in vivo at 170 mg/kg [2]: -40%; change in vivo at 170 mg/kg [3]: 149%; Percentage protection against the convulsant effects of strychnine ([4]; 170 mg/kg p.o.): 33% |
| COc1cc(NC(=O)Nc2ccnc3cc(Cl)ccc23)cc(OC)c1OC [compound 777] | > 5000 mg/kg |  |
| COc1cc(NC(=O)NC2CCCCC2)cc(OC)c1OC [compound 778] | > 5000 mg/kg |  |
| CCCCN(CCCC)C(=O)Nc1cc(OC)c(OC)c(OC)c1 [compound 780] | > 5000 mg/kg |  |
| COc1cc(NC(=O)NC2CCCCCCC2)cc(OC)c1OC [compound 781] | > 5000 mg/kg |  |
| COc1cc(NCC(=O)N2CCOc3ccccc32)cc(OC)c1OC [compound 782] | > 5000 mg/kg |  |
| COc1cc(NC(=O)NCCc2ccccc2)cc(OC)c1OC [compound 783] | > 5000 mg/kg |  |
| COc1cc(NC(=O)NC(C)CN(C)C)cc(OC)c1OC (stereo not drawn) [compound 784] | 3380 mg/kg |  |
| COc1cc(NC(=O)NCCCN(C)C)cc(OC)c1OC [compound 785] | 2200 mg/kg |  |
| COc1cc(NCC(=O)N2CCN(C)CC2)cc(OC)c1OC [compound 786] | 1700 mg/kg | change in vivo at 170 mg/kg [2]: -20%; change in vivo at 170 mg/kg [3]: 172% |
| COc1cc(NC(=O)CN2CCOCC2)cc(OC)c1OC [compound 787] | 2500 mg/kg | change in vivo at 250 mg/kg [2]: -84%; change in vivo at 250 mg/kg [3]: 141% |
| COc1cc(NC(=O)N2CC(C)OC(C)C2)cc(OC)c1OC (stereo not drawn) [compound 788] | 1350 mg/kg | change in vivo at 135 mg/kg ([2]; 135 mg/kg p.o.): -34% |
| COc1cc(NS(=O)(=O)N2CCOCC2)cc(OC)c1OC [compound 791] | > 5000 mg/kg | change in vivo at 500 mg/kg [2]: -53%; change in vivo at 500 mg/kg [3]: 200% |
| COc1cc(NC(=O)CN2CCOc3ccccc32)cc(OC)c1OC [compound 792] | > 5000 mg/kg |  |
| COc1cc(NCC(=O)N2CCOCC2)cc(OC)c1OC [compound 793] | 1250 mg/kg |  |
| COc1cc(NC(=O)N2CCN(C(c3ccccc3)c3ccc(Cl)cc3)CC2)cc(OC)c1OC (stereo not drawn) [compound 795] | > 5000 mg/kg |  |
| COc1cc(NC(=O)NCCc2ccc(Cl)cc2)cc(OC)c1OC [compound 796] | > 5000 mg/kg |  |
| COc1cc(NC(=O)NCC2CCCO2)cc(OC)c1OC (stereo not drawn) [compound 797] | 4400 mg/kg |  |
| COc1cc(CNC(=O)Nc2cc(OC)c(OC)c(OC)c2)cc(OC)c1OC [compound 798] | > 5000 mg/kg | change in vivo at 500 mg/kg [2]: -20%; change in vivo at 500 mg/kg [3]: 145%; responders at 500 mg/kg [5]: 40% |
| COc1cc(NC(=O)NC2CCCCCC2)cc(OC)c1OC [compound 799] | > 5000 mg/kg |  |
| COc1cc(NC(=O)NC2CCCC2)cc(OC)c1OC [compound 800] | > 5000 mg/kg |  |

| Compound | LD50 ([1]; po) | also measured |
| --- | --- | --- |
| COc1cc(NC(=O)N(C)C2CCCCC2)cc(OC)c1OC [compound 802] | > 5000 mg/kg |  |
| COc1cc(NC(=O)N2CCSCC2)cc(OC)c1OC [compound 804] | > 5000 mg/kg | change in vivo at 500 mg/kg [2]: -24%; change in vivo at 500 mg/kg [3]: 120% |
| COc1cc(NC(=O)N(C)CCCN(C)C)cc(OC)c1OC [compound 805] | 2500 mg/kg |  |
| COc1cc(NC(=O)NN2CCOCC2)cc(OC)c1OC [compound 807] | 2500 mg/kg | change in vivo at 250 mg/kg [2]: -33%; change in vivo at 250 mg/kg [3]: 98% |
| CCN(CC)C(=O)Nc1cc(OC)c(OC)c(OC)c1 [compound 809] | 3000 mg/kg | change in vivo at 300 mg/kg ([2]; 300 mg/kg p.o.): -78%; change in vivo at 300 mg/kg ([3]; 300 mg/kg p.o.): 157%; responders at 300 mg/kg ([5]; 300 mg/kg p.o.): 80% |
| COc1cc(NC(=O)N2CCCC2)cc(OC)c1OC [compound 810] | 3750 mg/kg | change in vivo at 375 mg/kg ([2]; 375 mg/kg p.o.): -38%; change in vivo at 375 mg/kg ([3]; 375 mg/kg p.o.): 148%; responders at 375 mg/kg ([5]; 375 mg/kg p.o.): 70% |
| C=CCN(C(=O)Nc1cc(OC)c(OC)c(OC)c1)C1CCCCC1 [compound 811] | 5000 mg/kg |  |
| C=C(C)CNC(=O)Nc1cc(OC)c(OC)c(OC)c1 [compound 812] | 2000 mg/kg |  |
| COc1cc(NC(=O)N2CCCCCC2)cc(OC)c1OC [compound 813] | 3000 mg/kg |  |
| COc1cc(NC(=O)N2CCC(O)CC2)cc(OC)c1OC [compound 814] | 5000 mg/kg |  |
| COc1cc(NC(=O)NCC2CCCCO2)cc(OC)c1OC (stereo not drawn) [compound 815] | 5000 mg/kg |  |
| COc1cc(NC(=O)N2CCOC(C)C2)cc(OC)c1OC (stereo not drawn) [compound 816] | 2500 mg/kg |  |
| COc1cc(NC(=O)CCN2CCOCC2)cc(OC)c1OC [compound 817] | 5000 mg/kg | change in vivo at 500 mg/kg [2]: -17%; change in vivo at 500 mg/kg [3]: 300%; responders at 500 mg/kg [5]: 40% |
| COc1cc(NC(=O)OCCN2CCOCC2)cc(OC)c1OC [compound 818] |  | LD50 [1]: 3500 mg/kg; change in vivo at 350 mg/kg ([2]; 350 mg/kg p.o.): -33%; change in vivo at 350 mg/kg ([3]; 350 mg/kg p.o.): 180% |
| COc1cc(NC(=O)N2CCCO2)cc(OC)c1OC [compound 820] | 1250 mg/kg |  |
| COc1cc(N(Cc2ccccc2)C(=O)N2CCOCC2)cc(OC)c1OC [compound 821] | 2500 mg/kg |  |
| COc1cc(N(CCN2CCOCC2)C(=O)N2CCOCC2)cc(OC)c1OC [compound 822] | 5000 mg/kg |  |
| COc1cc(NC(=O)ON2CCOCC2)cc(OC)c1OC [compound 828] |  | LD50 [1]: > 5000 mg/kg |
| COc1cc(NC(=O)CCN2CCC(O)(c3ccc(Cl)cc3)CC2)cc(OC)c1OC [compound 829] |  | LD50 [1]: > 5000 mg/kg |
| COc1cc(NC(=O)N2CCN(CC(=O)N3CCCCC3)CC2)cc(OC)c1OC [compound 830] | 5000 mg/kg |  |
| COc1cc(NC(=O)NC(=O)CN2CCOCC2)cc(OC)c1OC [compound 834] | 3380 mg/kg |  |
| COc1cc(NCC(=O)N2CCN(c3ccccc3)CC2)cc(OC)c1OC [compound 837] | > 5000 mg/kg |  |
| COc1cc(NC(=O)CN2CCN(c3cccc(C(F)(F)F)c3)CC2)cc(OC)c1OC [compound 838] | > 5000 mg/kg |  |
| COc1cc(NC(=O)N2CCN(C(=O)Nc3cc(OC)c(OC)c(OC)c3)CC2)cc(OC)c1OC [compound 840] | > 5000 mg/kg |  |
| COc1cc(NC(=O)CCN2CCN(c3cccc(C(F)(F)F)c3)CC2)cc(OC)c1OC [compound 841] | > 5000 mg/kg |  |
| COc1cc(NC(=O)CN2CCN(CC(=O)Nc3cc(OC)c(OC)c(OC)c3)CC2)cc(OC)c1OC [compound 848] | > 5000 mg/kg |  |
